Positions count from the first letter of the chain named.
Assays:
[1] = target: T1, ZZZ3 ZZ domain (aa 800–903), WT (Homo sapiens, UniProt Q8IYH5); test: Tryptophan fluorescence binding of histone peptides to WT ZZZ3 ZZ domain; settings: for Kd: 1.0 µM ZZZ3 ZZ (aa 800–903), 25 °C, 20 mM Tris–HCl pH 7.2, 150 mM NaCl, 1 mM DTT, mean ± SD of three experiments
T1 construct: The samples containing 1.0 µM ZZZ3 ZZ (aa 800–903); GST (N, cleaved yes); made in house; host or cells: E. coli BL21 (DE3) RIL
T1 sequence (Q8IYH5 800-903): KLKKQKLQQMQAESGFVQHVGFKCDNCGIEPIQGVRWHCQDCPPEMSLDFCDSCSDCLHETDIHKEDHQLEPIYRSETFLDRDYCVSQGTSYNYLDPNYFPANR
Procedure: Spectra were recorded at 25 °C on a Fluoromax-3 spectrofluorometer (HORIBA). The samples containing 1.0 µM ZZZ3 ZZ (aa 800–903) and progressively increasing concentrations of the histone peptide were excited at 295 nm. Experiments were performed in buffer containing 20 mM Tris–HCl (pH 7.2), 150 mM NaCl, and 1 mM DTT, with the exception of experiments shown in Supplementary Fig. 3b, which were performed in 100 mM NaCl buffer. Emission spectra were recorded over a range of wavelengths between 330 and 360 nm with a 0.5-nm step size and a 1-s integration time and averaged over three scans. The Kd values were determined using a nonlinear least-squares analysis and the equation: ΔI=ΔImaxL+P+Kd-L+P+Kd^2-4[P][L]/2[P] where [L] is the concentration of the histone peptide, [P] is the concentration of ZZZ3 ZZ domain, ΔI is the observed change of signal intensity, and ΔImax is the difference in signal intensity of the free and bound states of the ZZ domain. The Kd value was averaged over three separate experiments, with error calculated as the standard deviation between the runs.

[2] = target: T2, ATAC complex (Homo sapiens, UniProt Q8IYH5); test: In vitro HAT assay of purified ATAC complex with histone peptides or mononucleosomes; format: biochemical; settings: 1 μg peptide, 0.1 mM acetyl-CoA, 37 °C, western blot
T2 construct: expressed in transfected cells; nuclear extract, M2-agarose, eluted with triple-FLAG peptide
Procedure: Nuclear extracts were prepared from stable cells using a standard protocol. Briefly, approximately 2 mg of nuclear extract was incubated with 25 µl of M2-agarose beads (Sigma) overnight at 4 °C. The beads were washed four times with high-salt wash buffer (10 mM HEPES, pH 7.9, 25% glycerol, 1.5 mM MgCl2, 300 mM KCl, and 0.1% Triton X-100), followed by two washes with low-salt wash buffer (10 mM HEPES, pH 7.9, 25% glycerol, 1.5 mM MgCl2, 100 mM KCl, and 0.1% Triton X-100). Elution was achieved by two consecutive incubations of the beads with 0.5 mg/ml triple-FLAG peptide (Sigma) in 200 µl of low-salt wash buffer. All buffers contained phenylmethylsulfonyl fluoride and protease inhibitor cocktail (Roche).
Purified complexes were incubated for indicated times at 37 °C with peptides (1 μg) or mononucleosomes (10 μg) and 0.1 mM acetyl-CoA in HAT reaction buffer (50 mM Tris, pH 8.0, 0.1 mM EDTA, 10% glycerol, 1 mM PMSF, and 1 mM DTT) in a total volume of 50 μL. Reactions were quenched by flash-freezing in liquid nitrogen and then analyzed by SDS-PAGE and western blot. Uncropped western blots are shown in Supplementary Figure 11.

[3] = target: T3, ZZZ3 ZZ domain (a.a. 800–903) (Homo sapiens, UniProt Q8IYH5); test: Microscale thermophoresis (MST) displacement binding assay; settings: displacement of 80 nM fluorescein-labeled H3 (1–12) from 5 μM ZZ by unlabeled peptide; 20 mM Tris–HCl pH 7.0, 150 mM NaCl, 3 mM DTT; H3 triplicates, H3K4ac duplicates
T3 construct: The samples containing 1.0 µM ZZZ3 ZZ (aa 800–903); GST (N, cleaved yes); made in house; host or cells: E. coli BL21 (DE3) RIL
T3 sequence (Q8IYH5 800-903): T1 sequence (Q8IYH5 800-903)
Procedure: The MST experiments were performed using a Monolith NT.115 instrument (NanoTemper) as described previously. All experiments were performed with the purified ZZ domain (a.a. 800-903) in a buffer containing 20 mM Tris-HCl (pH 7.0), 150 mM NaCl, and 3 mM DTT. The final concentration of the C-terminal fluorescein-labeled histone H3 peptide (1-12, KE BIOCHEM) was kept at 80 nM. Dissociation constants for the interaction between ZZ with unlabeled peptides H3 (1-12) and H3K4ac (1-12) were measured using a displacement assay in which increasing amounts of unlabeled peptides were added into a preformed ZZ:H3-FAM complex prepared by supplementing 5 μM ZZ into each sample. The measurements were performed at 50% LED and 40% MST power with 3-s laser on time and 22 s off time. For all measurements, samples were loaded into premium capillaries and 1400-1700 counts were obtained for the fluorescence intensity. The Kd and IC50 values were determined with the MO.Affinity Analysis software (NanoTemper Technologies GmbH), using two independent MST measurements. […] The Kd value is the dissociation constant of labeled H3 peptide determined in the direct binding experiment described above. […]

[4] = target: T4, ZZZ3 ZZ domain D824A (Homo sapiens, UniProt Q8IYH5, D824A); test: 1H,15N HSQC NMR titration of ZZZ3 ZZ D824A mutant with histone peptides; format: binding; settings: measured by NMR (1H,15N HSQC titration); 0.1 mM 15N-labeled protein; 298 K
T4 construct: GST (N, cleaved yes); made in house; host or cells: E. coli BL21 (DE3) RIL
T4 sequence (Q8IYH5 818-877 D824A limits assumed): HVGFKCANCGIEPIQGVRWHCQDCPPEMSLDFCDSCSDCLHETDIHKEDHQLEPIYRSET
Procedure: (§1) In total, 0.1 mM uniformly ^15N-labeled WT or mutated ZZZ3-ZZ was used in NMR titrations. Binding was characterized by monitoring chemical shift changes in the proteins induced by histone peptides (synthesized by SynPeptide). Dissociation constant (Kd) was determined by applying PCA to the ^1H,^15N HSQC titration spectra in TREND[30]. Each binding isotherm was fitted using the following equation: pbound=∣∣PC1∣∣=L+P+Kd-L+P+Kd^2-4[P][L]/2[P] where [L] is the concentration of the histone peptide, [P] is the concentration of ZZ, pbound is the fraction of protein bound to a ligand, and PC1 is the normalized principal component, obtained by TREND, that indicates the change in the population of the bound state. The errors of the Kd value are the fitting uncertainties from nonlinear least-squares fits in Kaleidagraph.

[5] = target: T5, ZZZ3 ZZ domain D848A (Homo sapiens, UniProt Q8IYH5, D848A); test: 1H,15N HSQC NMR titration of ZZZ3 ZZ D848A mutant with histone peptides; format: binding; settings: measured by NMR (1H,15N HSQC titration); 0.1 mM 15N-labeled protein; 298 K
T5 construct: GST (N, cleaved yes); made in house; host or cells: E. coli BL21 (DE3) RIL
T5 sequence (Q8IYH5 818-877 D848A limits assumed): T4 sequence (Q8IYH5 818-877 D824A limits assumed) with A7D, D31A
Procedure: as §1

[6] = target: T6, ZZZ3 ZZ domain (Homo sapiens, UniProt Q8IYH5); test: Binding of non-H3-like peptide to ZZZ3 ZZ domain (Supplementary Fig. 2i); settings: N-terminal Ala1 added to a non-H3-like peptide
T6 construct: made in house; host or cells: E. coli BL21 (DE3) RIL
T6 sequence (Q8IYH5 818-877 limits assumed): T4 sequence (Q8IYH5 818-877 D824A limits assumed) with A7D

| Molecule | HAT activity of the ATAC complex on the peptide substrate [2] | Kd [3] [µM] | Kd, ZZZ3 ZZ domain D824A [4] | Kd [1] [µM] | also measured |
| --- | --- | --- | --- | --- | --- |
| C[C@H](N)C(=O)N[C@@H](CCCNC(=N)N)C(=O)N[C@H](C(=O)N[C@@H](CCCC[N+](C)(C)C)C(=O)N[C@@H](CCC(N)=O)C(=O)N[C@H](C(=O)N[C@@H](C)C(=O)N[C@@H](CCCNC(=N)N)C(=O)N[C@@H](CCCCN)C(=O)N[C@@H](CO)C(=O)N[C@H](C(=O)NCC(=O)O)[C@@H](C)O)[C@@H](C)O)[C@@H](C)O [H3K4me3] | – | – | – | – | Kd ([1]; SD): 22 ± 6 µM |
| Lys4-acetylated H3 peptide: Lys4-acetylated H3 (1-22) peptide used as HAT substrate | better substrate | – | – | – | – |
| C[C@H](N)C(=O)N[C@@H](CCCNC(=N)N)C(=O)N[C@H](C(=O)N[C@@H](CCCCN)C(=O)N[C@@H](CCC(N)=O)C(=O)N[C@H](C(=O)N[C@@H](C)C(=O)N[C@@H](CCCNC(=N)N)C(=O)N[C@@H](CCCCN)C(=O)N[C@@H](CO)C(=O)N[C@H](C(=O)NCC(=O)O)[C@@H](C)O)[C@@H](C)O)[C@@H](C)O [H3] | – | 18 | No binding | 29 | Kd, ZZZ3 ZZ domain D848A [5]: No binding |
| AGSGSG [non-H3-like peptide with an added N-terminal Ala1] | – | – | – | – | Binding to the ZZZ3 ZZ domain [6]: insufficient to bind |

Further lines, with some results ahead:

| HAT activity of the ATAC complex on the peptide substrate [2] | Kd [3] [µM] | Kd, ZZZ3 ZZ domain D824A [4] | Kd [1] [µM] | Molecule | also measured |
| --- | --- | --- | --- | --- | --- |
| – | 5.5 | No binding | 8.2 | CC(=O)NCCCC[C@H](NC(=O)[C@@H](NC(=O)[C@H](CCCNC(=N)N)NC(=O)[C@H](C)N)[C@@H](C)O)C(=O)N[C@@H](CCC(N)=O)C(=O)N[C@H](C(=O)N[C@@H](C)C(=O)N[C@@H](CCCNC(=N)N)C(=O)N[C@@H](CCCCN)C(=O)N[C@@H](CO)C(=O)N[C@H](C(=O)NCC(=O)O)[C@@H](C)O)[C@@H](C)O [H3K4ac] | Fold enhancement of ZZ association over the unmodified H3 peptide ([1]; Kd 8.2 μM versus 29 μM): ~ 3 fold |
| abolishes the HAT activity | – | – | – | H3 (3–33): biotinylated histone H3 peptide lacking the first two amino acids, HAT substrate | – |

Source: paper PMC6138639, “The ZZ-type zinc finger of ZZZ3 modulates the ATAC complex-mediated histone acetylation and gene activation” (Nature Communications, 2018)
